Laboratory results from patent publication US9523100B2, “Pesticidal compositions and related methods” (DOW AGROSCIENCES LLC, priority 2013, dated 2016).
Where two headings read alike, the source gives them in different places.

Legend:
[1] = system: Sweetpotato Whitefly-Crawler (WF) (Bemisia tabaci) (BEMITA); assay: Insecticidal test for Sweetpotato Whitefly-Crawler (WF) in foliar spray assay on cotton plants; format: in vivo; conditions: 216 h, read-out: WF 200 ppm, % Control (or Mortality) rating
Method in brief: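 Whitefly nymph control on egg-infested cotton (eggs laid 4–5 days pre-treatment), foliar spray at 200 ppm test compound. Live late-stage nymphs counted microscopically 9 days later at ~25 °C; control calculated by Abbott's formula relative to acetone-diluent-sprayed plants.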

[2] = system: Green Peach Aphid (GPA) (Myzus persicae) (MYZUPE); assay: Bioassay for Green Peach Aphid (GPA), foliar spray on cabbage seedlings; format: in vivo; conditions: 72 h, read-out: GPA 200 ppm, % Control (or Mortality) rating
Method in brief: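 Foliar spray test: 200 ppm solutions (0.025% Tween 20 in water, 20% acetone/methanol) applied to both leaf sides of aphid-infested cabbage seedlings. After 3 days at about 25° C, live aphids per plant were counted; control corrected to solvent check via Abbott's formula.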

[3] = 200 ppm foliar spray on cotton plants, graded after 9 days, Abbott corrected % control
[4] = 200 ppm foliar spray on cabbage seedlings, graded after three days, Abbott corrected % control

| SMILES | mortality at 200 ppm [1, 3] [%] | mortality at 200 ppm [2, 4] [%] | mortality at 200 ppm ([1]; foliar) [%] | mortality at 200 ppm ([2]; foliar) [%] |
| --- | --- | --- | --- | --- |
| CCN(C(=O)CCNC(=O)C(C)CC(F)(F)F)c1cn(-c2cccnc2)nc1Cl (stereo not shown) [Compound F44, N-(3-((3-Chloro-1-(pyridin-3-yl)-1H-pyrazol-4-yl)(ethyl)amino)-3-oxopropyl)-4,4,4-trifluoro-2-methylbutanamide] | 80 to 100 | 80 to 100 | – | – |
| CC(=O)CCC(=O)N(C)c1cn(-c2cccnc2)nc1Cl [FA75, N-(3-Chloro-1-(pyridin-3-yl)-1H-pyrazol-4-yl)-N-methyl-4-oxopentanamide] | 80 to 100 | 0 to 80 | – | – |
| CC(=O)N[C@@H]1C=C[C@H](C(=O)N(C)c2cn(-c3cccnc3)nc2Cl)C1 [Compound F86, (1R,4S)-4-acetamido-N-(3-chloro-1-(pyridin-3-yl)-1H-pyrazol-4-yl)-N-methyl-cyclopent-2-enecarboxamide] | 80 to 100 | 80 to 100 | – | – |
| CCN(C(=O)CC/C(C)=N/OCc1ccc(C(F)(F)F)nc1)c1cn(-c2cccnc2)nc1Cl [FA22, (E/Z)-N-(3-Chloro-1-(pyridin-3-yl)-1H-pyrazol-4-yl)-N-ethyl-4-(((6-(trifluoromethyl)pyridin-3-yl)methoxy)imino)pentanamide] | 80 to 100 | 0 to 80 | – | – |
| CCN(C(=O)CC/C(=N/OCC1CC(F)(F)C1)c1cccs1)c1cn(-c2cccnc2)nc1Cl [FA31, (Z)-N-(3-Chloro-1-(pyridin-3-yl)-1H-pyrazol-4-yl)-4-(((3,3-difluorocyclobutyl)methoxy)imino)-N-ethyl-4-(thiophen-2-yl)butanamide] | 0 to 80 | < 0 | – | – |
| CCN(C(=O)C1CCC(=O)C1)c1cn(-c2cncc(F)c2)nc1C (stereo not shown) [FA71, N-Ethyl-N-(1-(5-fluoropyridin-3-yl)-3-methyl-1H-pyrazol-4-yl)-3-oxocyclopentanecarboxamide] | 0 to 80 | 0 to 80 | – | – |
| CCSC(=O)N(C)CCC(=O)N(CC)c1cn(-c2cccnc2)nc1Cl [Compound F40, S-Ethyl (3-((3-chloro-1-(pyridin-3yl)-1H-pyrazol-4-yl)(ethyl)amino)-3-oxopropyl)(methyl) carbamothioate] | 0 to 80 | 0 to 80 | – | – |
| CCN(C(=O)CN(C)C(=O)CCC(F)(F)F)c1cn(-c2cccnc2)nc1Cl [Compound F5, N-(2-((3-Chloro-1-(pyridin-3-yl)-1H-pyrazol-4-yl)(ethyl)amino)-2-oxoethyl)-4,4,4-trifluoro-N-methylbutanamide] | 80 to 100 | 80 to 100 | – | – |
| CCN(C(=O)CCC1CN(Cc2ccc(C(F)(F)F)nc2)C1=O)c1cn(-c2cccnc2)nc1Cl (stereo not shown) [Compound F91, N-(3-Chloro-1-(pyridin-3-yl)-1H-pyrazol-4-yl)-N-ethyl-3-(2-oxo-1-((6-(trifluoromethyl)pyridin-3-yl)methyl)azetidin-3-yl)propanamide] | 80 to 100 | 80 to 100 | – | – |
| CCN(C(=O)C(C)C/C(C)=N\OCCC1CC1(F)F)c1cn(-c2cccnc2)nc1Cl (stereo not shown) [FA57, (Z)-N-(3-Chloro-1-(pyridin-3-yl)-1H-pyrazol-4-yl)-4-((2-(2,2-difluorocyclopropyl)ethoxy)imino)-N-ethyl-2-methylpentanamide] | 0 to 80 | 80 to 100 | – | – |
| CCN(C(=O)C1CCCN(C(=O)CC(F)(F)F)C1)c1cn(-c2cccnc2)nc1Cl (stereo not shown) [FA42, N-(3-Chloro-1-(pyridin-3-yl)-1H-pyrazol-4-yl)-N-ethyl-1-(3,3,3-trifluoropropanoyl)piperidine-3-carboxamide] | 0 to 80 | 80 to 100 | – | – |
| CCN(C(=O)CCC(=O)CCC(F)(F)F)c1cn(-c2cccnc2)nc1Cl [FA76, N-(3-Chloro-1-(pyridin-3-yl)-1H-pyrazol-4-yl)-N-ethyl-7,7,7-trifluoro-4-oxoheptanamide] | 80 to 100 | 0 to 80 | – | – |
| CCN(C(=O)C1CCN(C(=O)OC(C)(C)C)C1)c1cn(-c2cccnc2)nc1Cl (stereo not shown) [Compound F11] | 80 to 100 | 0 to 80 | – | – |
| CCN(C(=O)CCNC(=O)CC#N)c1cn(-c2cccnc2)nc1Cl [Compound F101, N-(3-Chloro-1-(pyridin-3-yl)-1H-pyrazol-4-yl)-3-(2-cyanoacetamido)-N-ethylpropanamide] | 80 to 100 | 0 to 80 | – | – |
| CN(C(=O)[C@H]1C=C[C@@H](NC(=O)OC(C)(C)C)C1)c1cn(-c2cccnc2)nc1Cl [Compound F116, tert-Butyl ((1S,4R)-4-((3-chloro-1-(pyridin-3-yl)-1H-pyrazol-4-yl)(methyl)carbamoyl)cyclopent-2-en-1-yl)carbamate] | 80 to 100 | 0 to 80 | – | – |
| CCN(C(=O)CC/C(=N/OCC1CC1(F)F)c1cccs1)c1cn(-c2cccnc2)nc1Cl (stereo not shown) [FA39, (Z)-N-(3-Chloro-1-(pyridin-3-yl)-1H-pyrazol-4-yl)-4-(((2,2-difluorocyclopropyl)methoxy)imino)-N-ethyl-4-(thiophen-2-yl)butanamide] | 0 to 80 | 0 to 80 | – | – |
| CCN(C(=O)CC/C(C)=N/OCC(F)(F)F)c1cn(-c2cccnc2)nc1Cl [Compound F51, (E/Z)-N-(3-Chloro-1-(pyridin-3-yl)-1H-pyrazol-4-yl)-N-ethyl-4-((2,2,2-trifluoroethoxy)imino) pentanamide] | 80 to 100 | 80 to 100 | – | – |
| CCN(C(=O)CCC(=O)N(C)CC1CC1)c1cn(-c2cccnc2)nc1Cl [Compound F30, N1-(3-Chloro-1-(pyridin-3-yl)-1H-pyrazol-4-yl)-N4-(cyclopropylmethyl)-N1-ethyl-N4-methylsuccinamide] | 80 to 100 | 80 to 100 | – | – |
| CCN(C(=O)CCC(=O)N(C)Cc1ccc(F)cc1)c1cn(-c2cccnc2)nc1Cl [Compound F118, N1-(3-Chloro-1-(pyridin-3-yl)-1H-pyrazol-4-yl)-N1-ethyl-N4-(4-fluorobenzyl)-N4-methylsuccinamide] | 80 to 100 | 80 to 100 | – | – |
| CCN(C(=O)CCn1ccc(/C(C)=N/OC)n1)c1cn(-c2cccnc2)nc1Cl [FA1, (E/Z)-N-(3-Chloro-1-(pyridin-3-yl)-1H-pyrazol-4-yl)-N-ethyl-3-(3-(1-(methoxyimino)ethyl)-1H-pyrazol-1-yl)propanamide] | 80 to 100 | 0 to 80 | – | – |
| CCN(C(=O)CCC(=O)O)c1cn(-c2cccnc2)nc1Cl [Compound C1, 4-((3-chloro-1-(pyridin-3-yl)-1H-pyrazol-4-yl)(ethyl)amino)-4-oxobutanoic acid] | 0 to 80 | < 0 | – | – |
| CCN(C(=O)C1CCN(C(=O)CC(F)(F)F)C1)c1cn(-c2cccnc2)nc1Cl (stereo not shown) [Compound P21, N-(3-Chloro-1-(pyridin-3-yl)-1H-pyrazol-4-yl)-N-ethyl-1-(3,3,3-trifluoropropanoyl)pyrrolidine-3-carboxamide] | 0 to 80 | 80 to 100 | – | – |
| CCN(C(=O)C(C)OC(=O)N(C)C)c1cn(-c2cccnc2)nc1Cl (stereo not shown) [Compound F93, 1-((3-chloro-1-(pyridin-3-yl)-1H-pyrazol-4-yl)(ethyl)amino)-1-oxopropan-2-yl dimethylcarbamate] | – | – | 80 to 100 | 80 to 100 |
